# Experimental data reported in a melting point compilation (Tetko et al.; mined from patent text by program, amines drawn as free bases though some values may be those of a salt).
row,Compound,melting point [°C]
1,CCN1CN2C(=N1)C(c1ccccc1Cl)=NCC1=C2S(=O)CC1 (configuration not stated),199 to 200
2,CS(=O)(=O)Nc1cc(N)ccc1OC1CCCCC1,152 to 154
3,COc1ccc2c(c1)Cc1cc(C(C)C(=O)O)ccc1-2 (configuration not stated),179 to 181
4,COc1c(NC(=O)Nc2ccc(-c3ccc(CN4CCOCC4)nc3)c3ccccc23)cc(C(C)(C)C)cc1Nc1c(N(C)C)c(=O)c1=O,176 to 179
5,CCCC(=O)Oc1ccc(S(=O)(=O)CS(N)(=O)=O)cc1,160 to 161
6,CC12CCC(C1)C(C)(C)C2(S)CC#N (configuration not stated),170 to 171
7,CCOC(=O)Cn1cc(C(=O)O)c2nc3c(C)cccc3cc2c1=O,277 to 280
8,COC1(c2ccc3ccccc3c2)OOC12C1CC3CC(C1)CC2C3 (configuration not stated),116
9,CCOc1cc2c(cc1O)C(=O)CC1C2CCC2(C)C(O)CCC12 (configuration not stated),194 to 196
10,CC(=O)OC1CSC(Oc2cccc(-c3cccnc3)n2)C(OC(C)=O)C1OC(C)=O (configuration not stated),141
11,CCn1ncc2c(NCc3ccncc3)c3ccccc3nc21,191 to 192
12,Cc1cc2cc(CN3CCCC3)cnc2cc1NC(=O)c1ccc(-c2ccc(F)cc2)cc1F,174 to 177
13,O=C(CNC(=O)[C@@H]1CCCN1)Nc1ccc([N+](=O)[O-])cc1C(=O)c1ccccc1,165 to 167
14,CCNc1ccc(F)c(-c2cccnc2)c1F,79 to 80
15,CCCC(=O)Nc1n[nH]c2cc(-c3ccncc3)ccc12,200
16,COc1c(C=NO)ccc(Cl)c1Cl,82 to 83
17,COCCOc1ccc(CCCOC(=O)NS(=O)(=O)NCCc2ccccn2)c(Oc2ncc(C(F)(F)F)cc2Cl)c1,91 to 93
18,CCN(CC)CCOc1ccc(Nc2ncc3c(n2)N(C)C(=O)N(C(C)(C)C)C3)cc1,130
19,CNC(=C[N+](=O)[O-])N1CC1,118 to 119
20,CCOC(=O)c1[nH]c2cccc(C)c2c1Sc1ccc(Cl)cc1,186 to 188
21,COc1ccc(Br)cc1O,62 to 64

row,Compound,melting point [°C]
1,O=C(O)Cc1ccc(OCc2ccccc2)c(OCCc2ccccc2)c1,110 to 112
2,CCNc1ccc(C)c(O)c1,128 to 129
3,Cc1ccc(C2CC(N)=NN2c2nc3ccccc3s2)cc1 (configuration not stated),282 to 285
4,COc1ccc(Cc2ccc(NC3=NCCN3)cc2)s1,122 to 123
5,CC(CCc1ccc(CC(=O)O)cc1)CC(=O)O (configuration not stated),100 to 102
6,Cc1cccc2c1nc(-c1c(F)cccc1F)n2Cc1c(F)cccc1F,182 to 186
7,O=C(NCc1ccn(C2=CC3=C(CC2)CCc2[nH]c(=O)c(=O)[nH]c23)c1)Nc1ccccc1,> 240
8,CCC(CC)COc1cnc(N)nc1N,173 to 174
9,CCOC(=O)N(CCN(C(=O)OCC)C1CCCCC1)C1CCCCC1,108
10,Nc1cccc(-c2ccc(C3=CCCN(Cc4ccccc4)C3)cc2)n1,270 to 272
11,COc1ccc2c(c1OC)CC[C@H]2NC(C)=O,175
12,Cc1cc(-c2cc(C(F)(F)F)n3ncc(-c4nc(-c5cccc(S(N)(=O)=O)c5)no4)c3n2)ccc1C(F)(F)F,270
13,CC(C)CN1C(=O)[C@@H](CC(=O)O)O[C@H](c2ccccc2OCc2ccccc2)c2cc(Cl)ccc21 (relative stereo),194 to 197
14,COC(=O)N(C)c1cn2cc(Sc3ccccc3)ccc2n1,147 to 149
15,N#Cc1cccc(C2=NNCCC2n2cc(Cl)cn2)c1 (configuration not stated),171
16,COc1ccc(C2=NN(CCCCCCCCBr)C(=O)[C@H]3CCCC[C@@H]23)cc1OC (relative stereo),58 to 60
17,CCN(CC)C(=O)[C@H]1CN2CC[C@H]1[C@H](NCc1cc(OC)ccc1OC)[C@@H]2C(c1ccccc1)c1ccccc1 (relative stereo),153 to 154
18,COC(=O)c1nc(C(=O)c2ccc(N)c(OC)c2)n2ccccc12,63
19,CC(Cl)(Cl)C(NC(=O)c1cccc(Cl)c1)NC(=N[N+](=O)[O-])Nc1cccnc1 (configuration not stated),160 to 161
20,COC(=O)c1ccc(OC(F)(F)F)c(O)c1,95 to 97
21,N#Cc1cccc(-c2ccccc2)n1,65.2 to 66.1

# Next, values leading:
row,melting point [°C],Compound
1,105 to 107,COC(=O)COc1ccc(C(=O)CBr)cc1OC
2,82 to 84.5,CC(C)SCCOc1ccc(COc2cnn(C(C)(C)C)c(=O)c2Cl)cc1
3,64 to 87,CN1C(=O)CC[C@]2(C)c3ccc(-c4cccc(C(F)(F)F)c4)cc3CC[C@@H]12
4,76 to 77,CCC(C)c1nn(-c2ccc(C(F)(F)F)cn2)cc1CO (configuration not stated)
5,288 to 290,CCOC(=O)c1cnc2c3c(ccc2c1Cl)C(=O)C(C(C)=O)C=N3 (configuration not stated)
6,139 to 141,Nc1cccc(C=CC(=O)N2CCc3c([nH]c4ccccc34)C2c2ccc3c(c2)OCO3)c1 (configuration not stated)
7,201 to 202,O=C(OCc1ccccc1)N1CCc2c(sc3nc(CN4C(=O)CCC4=O)c(Cl)c(-c4ccc(C(F)(F)F)cc4)c23)C1
8,254,CCOC(=O)c1cc2c(cn1)[nH]c1ccc([N+](=O)[O-])c(OCc3ccccc3)c12
9,177 to 178,Cc1noc(-c2ccc(CN3C(=O)C4(COc5cc6c(cc54)OCCO6)c4ccccc43)cc2)n1 (configuration not stated)
10,167,COc1ccc(C(=O)c2c(C)oc3ccc([N+](=O)[O-])cc23)cc1
11,188 to 190,COc1ccc2cnc(=O)[nH]c2c1C(C)C
12,207,O=C(NC(=O)N1CCC(COc2ccccc2)CC1)c1ccc(O)cc1
13,99 to 100,C[C@H](NC(=O)CCSC(=O)c1ccccc1)C(=O)O
14,175 to 176,O=C(Nc1ccccc1)C1=C(Nc2ccccc2)COC1=O
15,87 to 88,BrC1=C(Br)C(Br)(Br)C(Br)=C1Br
16,78 to 80,O=C1CCCN1CCCNc1cc(C(c2cc(F)ccc2F)S(=O)(=O)c2ccc(Cl)cc2)c(Cl)cn1 (configuration not stated)
17,164 to 165,Cc1c(F)c(F)c(C(=O)NC2CCCCCC2)c(F)c1F
18,127,C[C@H](Nc1nc(NC=O)nc([C@@H](C)F)n1)C1CCCCC1
19,147 to 148,Cc1ccc(C(=O)Nc2cn(C3CCCCO3)nc2C(=O)NCCC(F)(F)F)cn1 (configuration not stated)
20,181 to 183,CCCCc1nc(Cl)c(C=O)n1Cc1ccc(-c2ccccc2-c2nc(=O)o[nH]2)cc1
21,218 to 221,Cc1c(C#N)c(NC(=O)c2ccccc2)n(C(C)c2ccccc2)c1C (configuration not stated)
22,127 to 129,O=C(O)CCCCCOc1ccc(C2OC3C(CO)OC(n4cnc5c(Cl)ncnc54)C3O2)cc1 (configuration not stated)
23,214,COc1cc(NC(=O)OCc2ccccc2)c(Cl)cc1-c1n[nH]c(=O)o1
24,184 to 186,CCOc1cc(Cc2cnc(N)nc2N)cc2c1OC(C)(C)C=C2
25,218 to 220,CC(=O)NC[C@H]1CN(c2ccc(-c3noc(C(N)=O)n3)c(F)c2)C(=O)O1
26,211 to 212,COc1ccc(Cl)c(S(=O)(=O)NC(=O)c2cn3cc(C(F)(F)F)cc(Cl)c3n2)c1
27,109 to 111,CCCCCCCCCCC1=C(O)C(=O)NC1=O
28,192 to 194,CCCc1nc2c(N)nc3cc(F)ccc3c2s1
29,147 to 148,O=C1CCCCCN1CNC(=S)NCN1CCCC1=O
30,106 to 108,CCN(CC)c1ccc2cc(C(=O)OCCO)c(=O)oc2c1
